Laboratory results reported in patent US20180215734A1, “PYRIMIDINE DERIVATIVES AS KINASE INHIBITORS AND THEIR THERAPEUTICAL APPLICATIONS” (NantBioScience, Inc., priority 2016, published 2018).

How the values were obtained:
FGFR1(h) = FGFR1(h) (Homo sapiens, UniProt P11362); experiment: Kinase assay, FGFR1(h); format: biochemical
Protocol: (§1) Kinase assay protocols well known to those of ordinary skill in the art were used. Specifically, the buffer composition was as follows: 20 mM MOPS, 1 mM EDTA, 0.01% Brij-35, 5% Glycerol, 0.1% β-mercaptoethanol, 1 mg/mL BSA. Test compounds were initially dissolved in DMSO at the desired concentration, then serially diluted to the kinase assay buffer. In a final reaction volume of 25 μL FGFR1(h) (5-10 mU) and KDR(h) (5-10 mU) are incubated with 8 mM MOPS pH 7.0, 0.2 mM EDTA, 200 μM LRRASLG (Kemptide), 10 mM magnesium acetate and [γ^33P-ATP]. The reaction was initiated by the addition of the MgATP mix. After incubation for 40 minutes at room temperature, the reaction was stopped by addition of 5 μL of a 3% phosphoric acid solution. Ten L of the reaction was then spotted onto a P30 filter mat and washed three times for 5 minutes in 50 mM phosphoric acid and once in methanol prior to drying and scintillation counting. Wells containing substrate but no kinase and wells containing a phosphopeptide control were used to set 0% and 100% phosphorylation value, respectively.
(§2) Of all of the steps in developing a drug, the hardest is finding promising compounds. (See, e.g., Malo et al., “Statistical practice in high-throughput screening data analysis,” Nature Biotechnology, 2006, 24, 167-75.) Kinase inhibitors often also have an anti-proliferative effect. […] The kinase inhibitory activity Compound 19 was tested using the kinase assay described in Example 3. […] These mutations in the tested kinases are thought to play an important role in transformation of some cancers.

KDR(h) = KDR(h) (Homo sapiens, UniProt P35968); experiment: Kinase assay, KDR(h); format: biochemical
Protocol: as §1, §2

Kato III = experiment: Inhibition of proliferation (CellTiterblue, 72 hr), Kato III; format: cell-based; settings: Homo sapiens, KATO III, 72 h
Protocol: A number of studies were performed to analyze the consequences of tyrosine kinase inhibition in cell lines. To do this, 1000 cells are seeded in 27 μl/well in 384-well microplates, which are then placed in a humidified CO2 incubator at 37° C. overnight. The next day, 3 μl/well of 10× concentrated drug is added and the plates are returned to the incubator for 72 hr. After 72 hr incubation, plates are removed and 6 μl/well CellTiterblue (Promega) viability reagent is added. Plates are returned to the incubator for 3 hrs, after which fluorescence measurements are read on the Victor X3 plate reader (Perkin Elmer). Data are analyzed using Excel (Microsoft), and GI50 values are determined using Prism (Graphpad).

FGFR1(V561M)(h) = FGFR1(V561M)(h) (Homo sapiens, UniProt P11362, V561M); experiment: Kinase assay, FGFR1(V561M)(h); format: biochemical
Protocol: as §1
Of all of the steps in developing a drug, the hardest is finding promising compounds. (See, e.g., Malo et al., “Statistical practice in high-throughput screening data analysis,” Nature Biotechnology, 2006, 24, 167-75.) Kinase inhibitors often also have an anti-proliferative effect. […]

FGFR2(N549H)(h) = FGFR2(N549H)(h) (Homo sapiens, UniProt P21802, N549H); experiment: Kinase assay, FGFR2(N549H)(h); format: biochemical
FGFR3(h) = FGFR3(h) (Homo sapiens, UniProt P22607); experiment: Kinase assay, FGFR3(h); format: biochemical
Lck(h) = Lck(h) (Homo sapiens, UniProt P06239); experiment: Kinase assay, Lck(h); format: biochemical
ABL(h) = ABL(h) (Homo sapiens, UniProt P00519); experiment: Kinase assay, ABL(h); format: biochemical
ALK(h) = ALK(h) (Homo sapiens, UniProt Q9UM73); experiment: Kinase assay, ALK(h); format: biochemical
cSRC(h) = cSRC(h) (Homo sapiens, UniProt P12931); experiment: Kinase assay, cSRC(h); format: biochemical
Flt3(h) = Flt3(h) (Homo sapiens, UniProt P36888); experiment: Kinase assay, Flt3(h); format: biochemical
IGF-1R(h) = IGF-1R(h) (Homo sapiens, UniProt P08069); experiment: Kinase assay, IGF-1R(h); format: biochemical
AJK2(h) = AJK2(h) (Homo sapiens, UniProt O60674); experiment: Kinase assay, AJK2(h); format: biochemical
Mer(h) = Mer(h) (Homo sapiens, UniProt Q12866); experiment: Kinase assay, Mer(h); format: biochemical
Ret(h) = Ret(h) (Homo sapiens, UniProt P07949); experiment: Kinase assay, Ret(h); format: biochemical
FGFR3 = target: T1, FGFR3 (Homo sapiens, UniProt P22607); experiment: BaF3 cells engineered for expression of FGFR3; format: cell-based; settings: read-out: IC5o(nM) FGFR3
T1 construct: expressed in transfected cells; host or cells: BaF3
Text: (§3) In FIG. 1 these kinases are from the fibroblast growth factor receptor class of kinases (FGFR1-FGFR4). Compound 19 kinase inhibitory activity FGFR1-FGFR4 are also depicted in Table 5.

FGFR4 = target: T2, FGFR4 (Homo sapiens, UniProt P22455); experiment: BaF3 cells engineered for expression of FGFR4; format: cell-based; settings: read-out: IC5o(nM) FGFR4
T2 construct: expressed in transfected cells; host or cells: BaF3
Text: as §3

[1] = Pharmacokinetic profile in rats; format: in vivo; settings: Rat
Text: Compound 19's pharmacokinetic profile is consistent with Compound 19 being used as a therapeutic agent.

[2] = Metabolic stability, human liver microsomes; format: in vitro ADME
[3] = Metabolic stability, rat liver microsomes; format: in vitro ADME
[4] = Metabolic stability, mouse liver microsomes; format: in vitro ADME
[5] = Cellular toxicity, primary human hepatocyte; format: cell-based; settings: primary hepatocytes
Text: (§4) Table 9 discloses toxicity data for compound 19 from various toxicity tests well known to those of ordinary skill.

CYP450 2C8 = CYP450 2C8 (Homo sapiens, UniProt P10632); experiment: CYP450 inhibition, 2C8; format: in vitro ADME
Text: as §4

CYP450 2C9 = CYP450 2C9 (Homo sapiens, UniProt P11712); experiment: CYP450 inhibition, 2C9; format: in vitro ADME
Text: as §4

CYP450 3A4 = CYP450 3A4 (Homo sapiens, UniProt P08684); experiment: CYP450 inhibition, 3A4; format: in vitro ADME
Text: as §4

Chain of FGFR1(h) (P11362 22-822): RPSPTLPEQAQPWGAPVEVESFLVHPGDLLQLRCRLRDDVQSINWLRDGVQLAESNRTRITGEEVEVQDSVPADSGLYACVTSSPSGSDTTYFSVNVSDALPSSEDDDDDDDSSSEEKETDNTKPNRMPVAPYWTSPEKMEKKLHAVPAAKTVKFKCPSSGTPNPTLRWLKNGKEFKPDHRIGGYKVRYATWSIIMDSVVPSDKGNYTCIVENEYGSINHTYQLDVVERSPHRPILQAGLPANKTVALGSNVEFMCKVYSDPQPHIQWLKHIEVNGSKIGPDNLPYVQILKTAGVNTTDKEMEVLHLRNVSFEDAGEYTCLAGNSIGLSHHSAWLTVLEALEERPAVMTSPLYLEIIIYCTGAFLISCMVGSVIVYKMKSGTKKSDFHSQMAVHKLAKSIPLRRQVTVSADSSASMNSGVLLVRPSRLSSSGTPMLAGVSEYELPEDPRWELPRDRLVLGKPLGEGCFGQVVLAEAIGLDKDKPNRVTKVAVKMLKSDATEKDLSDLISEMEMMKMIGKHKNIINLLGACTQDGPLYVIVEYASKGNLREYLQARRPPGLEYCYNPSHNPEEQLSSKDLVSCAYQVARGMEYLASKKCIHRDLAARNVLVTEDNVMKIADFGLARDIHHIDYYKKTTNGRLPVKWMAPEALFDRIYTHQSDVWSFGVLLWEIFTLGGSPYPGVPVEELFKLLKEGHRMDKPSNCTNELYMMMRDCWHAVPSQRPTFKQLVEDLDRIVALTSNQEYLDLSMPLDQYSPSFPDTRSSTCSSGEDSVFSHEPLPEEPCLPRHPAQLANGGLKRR
Chain of KDR(h) (P35968 20-1356): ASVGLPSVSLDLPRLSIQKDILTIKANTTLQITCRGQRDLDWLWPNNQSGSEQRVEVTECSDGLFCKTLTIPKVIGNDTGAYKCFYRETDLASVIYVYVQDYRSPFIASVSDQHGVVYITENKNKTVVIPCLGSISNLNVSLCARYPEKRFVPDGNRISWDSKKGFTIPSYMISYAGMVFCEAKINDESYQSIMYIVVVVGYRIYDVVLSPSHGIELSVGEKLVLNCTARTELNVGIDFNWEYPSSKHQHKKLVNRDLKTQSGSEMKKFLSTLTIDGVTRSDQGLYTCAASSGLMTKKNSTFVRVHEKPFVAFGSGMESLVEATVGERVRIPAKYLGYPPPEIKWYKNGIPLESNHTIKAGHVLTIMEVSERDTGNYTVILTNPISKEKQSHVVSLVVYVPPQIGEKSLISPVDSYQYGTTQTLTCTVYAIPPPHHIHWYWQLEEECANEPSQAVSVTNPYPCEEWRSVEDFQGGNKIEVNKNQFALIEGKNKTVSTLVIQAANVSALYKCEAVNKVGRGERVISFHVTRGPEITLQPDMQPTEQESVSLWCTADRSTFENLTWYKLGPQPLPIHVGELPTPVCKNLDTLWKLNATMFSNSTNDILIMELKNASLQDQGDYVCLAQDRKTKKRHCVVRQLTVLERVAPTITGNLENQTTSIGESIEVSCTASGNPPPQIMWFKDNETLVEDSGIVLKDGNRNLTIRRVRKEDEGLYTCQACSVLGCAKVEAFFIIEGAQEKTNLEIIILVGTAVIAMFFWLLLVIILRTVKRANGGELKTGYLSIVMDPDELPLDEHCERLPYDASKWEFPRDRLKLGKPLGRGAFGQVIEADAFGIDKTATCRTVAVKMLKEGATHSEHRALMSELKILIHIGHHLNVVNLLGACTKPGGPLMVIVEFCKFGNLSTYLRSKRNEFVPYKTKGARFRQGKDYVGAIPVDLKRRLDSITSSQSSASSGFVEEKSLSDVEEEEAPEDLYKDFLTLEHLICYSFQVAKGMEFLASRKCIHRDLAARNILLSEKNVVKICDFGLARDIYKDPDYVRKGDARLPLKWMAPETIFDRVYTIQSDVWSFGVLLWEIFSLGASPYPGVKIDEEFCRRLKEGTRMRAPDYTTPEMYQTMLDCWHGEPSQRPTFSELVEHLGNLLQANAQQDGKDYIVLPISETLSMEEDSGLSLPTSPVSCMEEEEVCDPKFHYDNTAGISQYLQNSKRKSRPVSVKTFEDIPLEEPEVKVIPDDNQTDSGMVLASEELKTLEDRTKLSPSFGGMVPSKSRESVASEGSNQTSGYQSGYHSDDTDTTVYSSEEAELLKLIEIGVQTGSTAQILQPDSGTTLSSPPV
Chain of ABL(h) (P00519 whole entry): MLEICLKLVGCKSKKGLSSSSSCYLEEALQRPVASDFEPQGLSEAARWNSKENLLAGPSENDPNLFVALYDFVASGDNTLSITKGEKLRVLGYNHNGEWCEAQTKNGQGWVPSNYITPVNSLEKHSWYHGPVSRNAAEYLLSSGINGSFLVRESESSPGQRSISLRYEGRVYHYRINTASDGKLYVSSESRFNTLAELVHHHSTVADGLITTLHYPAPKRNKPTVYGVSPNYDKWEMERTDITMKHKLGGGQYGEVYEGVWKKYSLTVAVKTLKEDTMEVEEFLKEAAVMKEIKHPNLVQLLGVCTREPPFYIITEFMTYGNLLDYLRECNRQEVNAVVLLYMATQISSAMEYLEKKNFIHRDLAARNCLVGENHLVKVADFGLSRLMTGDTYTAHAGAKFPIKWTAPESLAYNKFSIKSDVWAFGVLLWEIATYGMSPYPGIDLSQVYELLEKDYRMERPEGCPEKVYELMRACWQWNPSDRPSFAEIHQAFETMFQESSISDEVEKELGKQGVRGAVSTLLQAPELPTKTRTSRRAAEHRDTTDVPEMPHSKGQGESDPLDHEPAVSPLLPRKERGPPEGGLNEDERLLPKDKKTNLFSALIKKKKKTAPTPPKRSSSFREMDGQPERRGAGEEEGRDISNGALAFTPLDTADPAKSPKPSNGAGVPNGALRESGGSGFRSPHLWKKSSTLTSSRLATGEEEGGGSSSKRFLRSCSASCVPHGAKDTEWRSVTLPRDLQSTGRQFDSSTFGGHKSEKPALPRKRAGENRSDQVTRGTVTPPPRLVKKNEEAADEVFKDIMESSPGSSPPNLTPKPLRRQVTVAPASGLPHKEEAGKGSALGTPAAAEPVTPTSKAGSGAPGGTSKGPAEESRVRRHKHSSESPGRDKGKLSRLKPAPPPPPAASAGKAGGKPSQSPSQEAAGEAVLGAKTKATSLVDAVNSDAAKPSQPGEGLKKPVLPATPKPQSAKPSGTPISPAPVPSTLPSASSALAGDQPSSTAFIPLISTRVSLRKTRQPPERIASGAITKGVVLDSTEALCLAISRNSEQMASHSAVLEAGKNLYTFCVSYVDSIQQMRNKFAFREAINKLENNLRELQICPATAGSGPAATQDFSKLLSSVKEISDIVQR
Chain of FGFR2(N549H)(h) (P21802 22-821 N549H): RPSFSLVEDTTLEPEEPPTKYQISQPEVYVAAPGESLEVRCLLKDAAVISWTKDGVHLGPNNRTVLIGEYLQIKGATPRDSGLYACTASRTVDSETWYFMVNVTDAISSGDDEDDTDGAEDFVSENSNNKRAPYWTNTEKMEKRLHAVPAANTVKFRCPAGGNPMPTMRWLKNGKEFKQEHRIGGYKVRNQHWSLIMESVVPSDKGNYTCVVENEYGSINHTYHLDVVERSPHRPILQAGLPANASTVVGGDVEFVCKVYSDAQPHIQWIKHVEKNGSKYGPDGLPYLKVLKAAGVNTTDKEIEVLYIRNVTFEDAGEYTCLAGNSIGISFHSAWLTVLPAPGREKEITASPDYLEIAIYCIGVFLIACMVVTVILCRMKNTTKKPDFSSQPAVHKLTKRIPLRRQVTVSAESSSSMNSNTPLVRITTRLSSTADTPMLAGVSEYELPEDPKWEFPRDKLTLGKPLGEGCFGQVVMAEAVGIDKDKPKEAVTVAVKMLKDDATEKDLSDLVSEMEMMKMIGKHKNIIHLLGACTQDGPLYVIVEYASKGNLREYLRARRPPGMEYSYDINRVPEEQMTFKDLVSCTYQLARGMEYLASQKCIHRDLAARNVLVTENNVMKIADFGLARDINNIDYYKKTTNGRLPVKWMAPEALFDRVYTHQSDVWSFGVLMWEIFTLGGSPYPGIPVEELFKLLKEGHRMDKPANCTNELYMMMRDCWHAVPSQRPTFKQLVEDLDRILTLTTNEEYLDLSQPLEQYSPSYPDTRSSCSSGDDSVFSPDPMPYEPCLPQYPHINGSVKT
T2 sequence (P22455 22-802): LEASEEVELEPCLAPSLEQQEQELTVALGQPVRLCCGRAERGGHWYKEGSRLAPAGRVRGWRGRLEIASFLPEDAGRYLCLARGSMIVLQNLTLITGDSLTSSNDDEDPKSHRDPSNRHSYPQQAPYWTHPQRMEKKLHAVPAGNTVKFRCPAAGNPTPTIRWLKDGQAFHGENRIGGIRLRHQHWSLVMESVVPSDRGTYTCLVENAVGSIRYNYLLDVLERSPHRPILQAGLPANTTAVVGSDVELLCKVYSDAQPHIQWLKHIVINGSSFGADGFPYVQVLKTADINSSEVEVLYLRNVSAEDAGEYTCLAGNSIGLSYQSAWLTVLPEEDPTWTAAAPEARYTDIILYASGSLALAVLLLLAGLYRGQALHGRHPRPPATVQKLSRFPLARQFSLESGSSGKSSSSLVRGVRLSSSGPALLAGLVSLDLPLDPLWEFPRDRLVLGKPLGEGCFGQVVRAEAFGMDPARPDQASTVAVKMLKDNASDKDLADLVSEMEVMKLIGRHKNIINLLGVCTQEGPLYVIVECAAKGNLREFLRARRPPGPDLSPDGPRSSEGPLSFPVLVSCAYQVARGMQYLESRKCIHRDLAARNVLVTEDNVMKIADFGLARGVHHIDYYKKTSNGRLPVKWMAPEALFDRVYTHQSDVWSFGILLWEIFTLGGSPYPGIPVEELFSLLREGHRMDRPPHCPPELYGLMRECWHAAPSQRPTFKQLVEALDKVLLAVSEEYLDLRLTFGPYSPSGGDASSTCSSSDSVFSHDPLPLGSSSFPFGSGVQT
Chain of FGFR1(V561M)(h) (P11362 22-822 V561M): as the sequence (P11362 22-822) above, with V540M counted along it

Cc1cc2c(F)c(Oc3ncnc(Nc4ccc(N5C[C@@H](C)N[C@@H](C)C5)cc4)c3C#N)cc(F)c2[nH]1 [Compound 19]
IC50 (FGFR1(h)): 0.9 nM | inhibition at 1 µM (FGFR1(h); 1 μM): 100% | IC50 (KDR(h)): 485 nM | inhibition at 1 µM (KDR(h)): 86% | GI50 (Kato III): 79 nM | IC50 (FGFR1(V561M)(h)): 134 nM | IC50 (FGFR2(N549H)(h)): 7 nM | IC50 (FGFR3(h)): 12 nM | IC50 (Lck(h)): > 1000 nM | IC50 (ABL(h)): > 1000 nM | IC50 (ALK(h)): > 1000 nM | IC50 (cSRC(h)): > 1000 nM | IC50 (Flt3(h)): > 1000 nM | IC50 (IGF-1R(h)): > 1000 nM | IC50 (AJK2(h)): > 1000 nM | IC50 (Mer(h)): > 1000 nM | IC50 (Ret(h)): > 1000 nM | IC50 (FGFR3): 32.6 nM | IC50 (FGFR4): 92.1 nM | Oral Bioavailability (% F) ([1]; PO 5 mg/Kg): 76 % F | clearance ([1]; in vivo, IV 1 mg/Kg): 17.6 mL/min/kg | half-life ([1]; in vivo, IV 1 mg/Kg, read-out: Terminal Half Life (converted)): 6.81 h | Vd ([1]; in vivo, IV 1 mg/Kg, read-out: Vz): 9.54 L/kg | half-life [2]: > 1 h | half-life [3]: > 1 h | half-life [4]: > 1 h | CC50 [5]: 20000 nM | IC50 (CYP450 2C8): 10600 nM | IC50 (CYP450 2C9): 32900 nM | IC50 (CYP450 3A4): 67300 nM
